According to patent US12447156B2, “Treating progressive familial intrahepatic cholestasis (PFIC) with IBAT inhibitors” (ALBIREO AB, priority 2020, dated 2025):

Test: Water content and water uptake of crystal modification 1 at different relative humidity
Assay type: physicochemical

CCCCC1(CCCC)CN(c2ccccc2)c2cc(SC)c(OCC(=O)N[C@@H](C(=O)N[C@@H](CC)C(=O)O)c3ccc(O)cc3)cc2S(=O)(=O)N1 [crystal modification 1]
water content of crystal (about 30% relative humidity, based on total crystal weight): about 3.5 % (w/w) | hygroscopicity (between about 30 and about 70% RH): relatively low hygroscopicity | additional water taken up (humidity increased up to 95% RH, fully reversible): 1.5 % (w/w)
